Measurements: patent US20100234231A1, “YIELD ENHANCING AGENT FOR HARVESTING PART OF CROP” (priority 2009, published 2010)

Columns and labels:
Assay type in all cases: in vivo
Turnip (variety: Honami) = assay: Comparative Example: combined treatment during seedling growth, turnip yield (field test); conditions: ALA hydrochloride 0.2 g/10a; prohexadione calcium salt 20 g/10a; 7 days before initiation of enlargement (seedling growth)
Experimental: Turnip (variety: […] At this time, a synthetic fertilizer was applied as a basal fertilizer such that N-P-K=5-5-5 kg/10 a. Four stocks were planted per test zone, and 4 test zones were set up randomly for one condition so as not to be affected by the place. […] After harvesting (11/12), the weights of the aerial part and the terrestrial part of the plant body were measured.

[1] = tested on: sunflower (variety: Hybrid Sunflower); assay: Effect of enhancing yield of sunflower seeds (field test, treatment after flowering); conditions: ALA hydrochloride 0.2 g/10a foliage x2, uniconazole P 0.3 g/10a, 7 days after flowering; for Number of filled seeds / Weight of filled seeds: empty seeds excluded
Experimental: A test field (red soil) was divided into 0.7 m^2 per compartment, and sunflower (variety: Hybrid Sunflower) was planted (6/9). A synthetic fertilizer was applied as a basal fertilizer such that N-P-K=5.0-5.0-5.0 kg/10 a (6/9). Four stocks were planted per test zone, and in the middle of growth, thinning was performed to make the test zone uniform so that there would be two stocks per test zone. Seven days after flowering, a Sumiseven P liquid preparation (containing 0.025% of uniconazole P) as an gibberellin biosynthesis inhibitor was used for treatment such that the amount of treatment of uniconazole P would be 0.3 […]) (8/20). Furthermore, a foliage treatment with 5-aminolevulic acid hydrochloride was performed at 0.2 […]), two times in total at the date of uniconazole P treatment (8/20) and 2 weeks after the uniconazole P treatment (9/3). As additional fertilization, a synthetic fertilizer was applied such that N-P-K=3.0-3.0-3.0 kg/10 a (7/8). After harvesting (9/16), the number and weight of seeds of each plant body were measured. This time, empty seeds without kernels were excluded. The test zone was provided as 6 test zones under each condition.

[2] = tested on: radish (variety: Red Chime); assay: Effect of enhancing yield of radish hypocotyl (pot test); conditions: ALA hydrochloride 0.1 g/10a foliage 6 days after prohexadione; prohexadione calcium salt 15 g/10a, 10 days after initiation of hypocotyl enlargement
Experimental: A certain amount of kuroboku soil was placed in a No. 6 pot (1/75000×10 a), and radish (variety: Red Chime) was planted (5/4). A liquid fertilizer Hyponica was applied as a basal fertilizer such that N-P-K=5.0-2.8-8.5 kg/10 a (5/8). Five stocks were planted per pot, and in the middle of growth, thinning was performed to make the test zone uniform so that there would be 3 stocks per pot. Ten days after the initiation of hypocotyl enlargement, prohexadione calcium salt was used as an gibberellin biosynthesis inhibitor to treat at 15 […]) (5/27). Furthermore, a treatment with 5-aminolevulic acid hydrochloride was performed at 0.1 […]) under the conditions of performing a foliage treatment (6/2) six days after the treatment with prohexadione calcium salt. […] Seven pots were used per test zone.

barley = assay: Effect of enhancing yield of barley grains (pot test, treatment around ear emergence)
Experimental: A certain amount of kuroboku soil was placed in a 15-L Polybucket (1/17500×10 a), a liquid fertilizer Hyponica was applied as a basal fertilizer such that N-P-K=5.0-2.8-8.5 kg/10 a, and barley was sowed (11/3). Five stocks of seedlings were planted per bucket, and in the middle of growth, thinning was performed to make the test zone uniform so that there would be 3 stocks per bucket. Five days before ear emergence (4/15), prohexadione calcium salt was used as an gibberellin biosynthesis inhibitor to treat at 7.0, 3.5 […]) (4/10). Furthermore, a treatment with 5-aminolevulic acid hydrochloride was performed at 0.15 […]) under the conditions of performing a foliage treatment each time at the respective times of before (4/3), simultaneously with (4/10) and after (5/8) the treatment with prohexadione calcium salt. […] Four buckets were used per test zone.

[3] = tested on: rice (variety: Koshihikari); assay: Effect of enhancing yield of rice (pot test, treatment after ear emergence); conditions: for Number of ears per stock / Number of rice grains per ear / Weight of thousand grains / Ripening rate: ALA hydrochloride 0.1 g/10 a foliage x3, prohexadione calcium salt 0.4 g/10 a, 3 days after ear emergence; for Ripening rate: number of rice grains having specific gravity of 1.06 or more/number of total rice grains x100, in %; for Yield of rice per stock: product of ears per stock, grains per ear, ripening rate and thousand-grain weight, ALA hydrochloride 0.1 g/10 a, prohexadione calcium salt 0.4 g/10 a
Experimental: Seeds of rice (variety: Koshihikari) were sterilized with 70% ethanol, and rice seeds heavier than a specific gravity of 1.13 were screened by brine washing. Water absorption for one night at 30° C. and germination for one night were carried out, and then the seeds were sowed in a seedling box (4/11). A certain amount of kuroboku soil was placed in a 15-L Polybucket (1/17500×10 a), a synthetic fertilizer was mixed therein as a basal fertilizer such that N-P-K=5-5-5 kg/10 a, and water was drawn in to a water depth of 3 cm. Grown seedlings were planted at 3 stocks per bucket (5/15). […] Furthermore, 5-aminolevulic acid (ALA) hydrochloride was used for a foliage treatment for three times (8/14, 8/30, 9/10) at 0.1 […]). Four buckets were used for one test zone, and the buckets were placed randomly so as not to be affected by the place.

SMILES | Weight of aerial part (Turnip (variety: Honami)) [kg/stock] | Weight of terrestrial part (Turnip (variety: Honami)) [kg/stock] | Live weight of plant body [1] [kg/stock] | Number of filled seeds [1] [seeds/stock] | Weight of filled seeds [1] [g/stock] | Fresh weight of hypocotyl [2] [g] | Weight of grains per stock (barley; ALA hydrochloride 0.15 g.a.i/10 a at the time 7 days before prohexadione calcium salt treatment (4/3), prohexadione calcium salt none) [g] | Weight of grains per stock (barley; ALA hydrochloride 0.15 g.a.i/10 a at the time 28 days after prohexadione calcium salt treatment (5/8), prohexadione calcium salt none) [g] | Weight of grains per stock (barley; ALA hydrochloride 0.15 g.a.i/10 a at the time simultaneous with prohexadione calcium salt treatment (4/10), prohexadione calcium salt none) [g] | Number of ears per stock [3] | Number of rice grains per ear [3] | Weight of thousand grains [3] [g] | Ripening rate [3] | Yield of rice per stock [3] [g] | Weight of grains per stock (barley; ALA hydrochloride none, prohexadione calcium salt 3.5 g.a.i/10 a, 5 days before ear emergence) [g] | Weight of grains per stock (barley; ALA hydrochloride none, prohexadione calcium salt 7 g.a.i/10 a, 5 days before ear emergence) [g]
Cl.NCC(=O)CCC(=O)O [ALA hydrochloride, 5-aminolevulic acid hydrochloride] | 0.368 | 0.725 | 1.68 | 1348 | 120.5 | 12.2 | 6.59 | 6.45 | 6.83 | 20.2 | 80.12 | 21.9 | 88.71 | 31.4 |  | 
CCC(=O)C1=C([O-])CC(C(=O)[O-])CC1=O.[Ca+2] (stereo not drawn) [Prohexadione calcium salt, calcium 3-oxido-5-oxo-4-propionyl-3-cyclohexene carboxylate] | 0.349 | 0.641 |  |  |  | 10.3 |  |  |  | 20.2 | 80.35 | 22.22 | 86.09 | 31.0 | 6.23 | 6.60
CC(C)(C)[C@H](O)/C(=C\c1ccc(Cl)cc1)n1cncn1 [Uniconazole P, (E)-(S)-1-(4-chlorophenyl)-4,4-dimethyl-2-(1H-1,2,4-triazol-1-yl)pent-1-en-3-ol] |  |  | 1.96 | 1377 | 126.3 |  |  |  |  |  |  |  |  |  |  | 
